Biological target: T1, Adenosine A2a receptor (Homo sapiens, UniProt P29274)
T1 construct: expressed in transfected cells; host or cells: CHO cell membranes
Experiment: Adenosine receptor TR-FRET binding assay, A2a
Settings: displacement of 100 nM CA200645, CHO cell membranes
Method: All FRET binding experiments were conducted at room temperature in white 384-well plates, in assay binding buffer containing 1× LabMed (Cisbio, France), 100 μg/mL saponin, 1% DMSO and 0.02% pluronic acid. Binding of the fluorescently labelled Adenosine receptor antagonist XAC (CA200645, FRET acceptor) to terbium-labelled A1, A2a, A2b and A3 adenosine receptors (FRET donors) was detected by time-resolved FRET due to the close proximity of the donor and acceptor in a binding event. To investigate the ability of unlabelled test compounds to bind to Adenosine A1, A2a, A2b and A3 receptors, dose response curves were constructed that determined the ability of a range of concentrations to inhibit the binding of 30 nM CA200645 to the A2b receptor and 100 nM CA200645 to the A1, A2a, and A3 receptor.
Serial dilution (1:3 dilutions) of test compounds in neat DMSO and transfer of a 400 nL sample of test compound into the assay plate was carried out using the Mosquito (TTP Labtech, UK). The compound samples were incubated for 2 hours at room temperature with a fixed concentration of CA200645 defined for each receptor (see above) and CHO cell membranes containing the human Adenosine A1 (0.5 μg/well), A2a (0.3 μg/well), A2b (1 μg/well) or A3 (1 μg/well) receptor in 40 μL of assay buffer. Total and non-specific binding of CA200645 was determined in the absence and presence of 10 μM XAC, respectively.
Following 2 hours incubation, the level of CA200645 binding was detected on a Pherastar FSX (BMG Labtech, Germany) using standard TR-FRET settings. The terbium donor was excited with three laser flashes at a wavelength of 337 nm, and donor and acceptor emission was detected at 620 nm and 665 nm wavelengths, respectively. FRET ratios were obtained by multiplying the acceptor/donor ratio value by 10,000. Specific binding was determined by subtracting the non-specific binding FRET ratio from the total binding FRET ratio. Compound IC50 curves were analysed using GraphPad Prism 7.0 (GraphPad, USA) and Ki affinity values were determined from the obtained […] values using the method of Cheng and Prusoff.

T1 sequence (P29274 whole entry): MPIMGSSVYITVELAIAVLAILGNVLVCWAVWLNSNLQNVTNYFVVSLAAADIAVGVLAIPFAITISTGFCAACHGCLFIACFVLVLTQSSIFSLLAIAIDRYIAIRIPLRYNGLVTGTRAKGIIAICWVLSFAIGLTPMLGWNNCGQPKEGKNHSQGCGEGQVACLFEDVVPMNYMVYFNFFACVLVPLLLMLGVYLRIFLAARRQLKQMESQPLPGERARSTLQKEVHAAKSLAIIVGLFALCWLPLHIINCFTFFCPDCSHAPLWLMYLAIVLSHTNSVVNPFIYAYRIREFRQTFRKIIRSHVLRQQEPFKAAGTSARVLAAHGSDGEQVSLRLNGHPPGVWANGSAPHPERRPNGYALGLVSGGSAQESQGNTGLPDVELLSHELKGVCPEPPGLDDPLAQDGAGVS

Row | SMILES | Ki (Table 8, Cheng and Prusoff) [nM] | Ki (Table 9, further testing) [nM]
1 | C[C@@H](NC(=O)c1cnc(-c2cccc(F)c2)nc1N)c1ccccc1 [Example 5, 4-Amino-2-(3-fluorophenyl)-N-[(1R)-1-phenylethyl]pyrimidine-5-carboxamide] | 329 | 329
2 | NC(=O)c1nnc(-c2cccc(F)c2)nc1N [Example 6, 5-Amino-3-(3-fluorophenyl)-1,2,4-triazine-6-carboxamide] | 556 | 556
3 | Cc1cccnc1CNC(=O)c1cnc(-c2ccccc2F)nc1N [Example 9, 4-Amino-2-(2-fluorophenyl)-N-[(3-methyl-2-pyridyl)methyl]pyrimidine-5-carboxamide] | 312 | 312
4 | Cc1cccnc1CNC(=O)c1cnc(-n2cccn2)nc1N [Example 15, 4-Amino-N-[(3-methyl-2-pyridyl)methyl]-2-pyrazol-1-yl-pyrimidine-5-carboxamide] | 265 | 265
5 | CC(C)NC(=O)c1c(N)nc(-c2cccc(C#N)c2)nc1OCCF [Example 24, 4-Amino-2-(3-cyanophenyl)-6-(2-fluoroethoxy)-N-isopropyl-pyrimidine-5-carboxamide] | – | 3.3

Continued, values first:

Row | Ki (Table 8, Cheng and Prusoff) [nM] | Ki (Table 9, further testing) [nM] | SMILES
6 | 278 | 278 | Nc1nc(-c2cccc(F)c2)ncc1C(=O)NCc1ncccn1 [Example 5.5, 4-Amino-2-(3-fluorophenyl)-N-(pyrimidin-2-ylmethyl)pyrimidine-5-carboxamide]
7 | 495 | 495 | COc1ccc(CNC(=O)c2cnc(-c3ccco3)nc2N)cc1 [Example 5.11, 4-Amino-2-(2-furyl)-N-[(4-methoxyphenyl)methyl]pyrimidine-5-carboxamide]
8 | 15 | 15 | Nc1nc(-c2ccco2)ncc1C(=O)NCc1ccc(Cl)cc1Cl [Example 5.19, 4-Amino-N-[(2,4-dichlorophenyl)methyl]-2-(2-furyl)pyrimidine-5-carboxamide]
9 | – | 53 | Nc1nc(-c2ccco2)ncc1C(=O)N[C@H]1CCc2ccc(F)cc21 [Example 5.42, 4-Amino-N-[(1S)-6-fluoroindan-1-yl]-2-(2-furyl)pyrimidine-5-carboxamide]
10 | – | 123 | Nc1nc(-c2ccco2)ncc1C(=O)NCc1ncco1 [Example 5.45, 4-Amino-2-(2-furyl)-N-(oxazol-2-ylmethyl)pyrimidine-5-carboxamide]
11 | – | 159 | Nc1nc(-c2ccco2)ncc1C(=O)NC1CCCc2cccnc21 (centres unmarked) [Example 5.49, 4-Amino-2-(2-furyl)-N-(5,6,7,8-tetrahydroquinolin-8-yl)pyrimidine-5-carboxamide]
12 | – | 21 | Nc1nc(-c2ccco2)ncc1C(=O)NCc1ccccc1C(F)(F)F [Example 5.55, 4-Amino-2-(2-furyl)-N-[[2-(trifluoromethyl)phenyl]methyl]pyrimidine-5-carboxamide]
13 | – | 5.7 | CCCNC(=O)c1c(N)nc(-c2cccc(C#N)c2)nc1OCCF [Example 24.1, 4-Amino-2-(3-cyanophenyl)-6-(2-fluoroethoxy)-N-propyl-pyrimidine-5-carboxamide]
14 | – | 2 | CC(C)CNC(=O)c1c(N)nc(-c2cccc(C#N)c2)nc1OCCF [Example 24.2, 4-Amino-2-(3-cyanophenyl)-6-(2-fluoroethoxy)-N-isobutyl-pyrimidine-5-carboxamide]
15 | – | 0.9 | CCCCNC(=O)c1c(N)nc(-c2cccc(C#N)c2)nc1OCCF [Example 24.3, 4-Amino-N-butyl-2-(3-cyanophenyl)-6-(2-fluoroethoxy)pyrimidine-5-carboxamide]
16 | – | 29 | CN(C)CCNC(=O)c1c(N)nc(-c2cccc(C#N)c2)nc1OCCF [Example 24.5, 4-Amino-2-(3-cyanophenyl)-N-[2-(dimethylamino)ethyl]-6-(2-fluoroethoxy)pyrimidine-5-carboxamide]

— patent US20200339548A1, “PYRIMIDINE DERIVATIVES AND THEIR USE FOR THE TREATMENT OF CANCER” (Adorx Therapeutics Limited, priority 2017, published 2020)
